Read-outs that look alike come from different tables or passages of the source. Blank lines part the entries; values can stand above or below the compound they belong to.
Tests used:
EGFR (d746-750 C797S) = target: T1, EGFR (d746-750 C797S) (Homo sapiens, UniProt P00533, C797S/DEL746-750); assay: Inhibition of EGFR (d746-750 C797S) biochemical enzymatic activity (HTRF); details: 1 mM ATP
T1 construct: purchased signalchem
How it was run: (§1)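 For IC50 determination by four-parameter logistic fit, EDTA-quenched 1 h room-temperature reactions (1 mM ATP, 1 μM TK Substrate-biotin) were read by HTRF. The 665/615 nm emission ratio after 320 nm excitation served as the activity signal.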

[1] = target: T2, EGFR[T790M/C797S/d746-750] (Homo sapiens, UniProt P00533, C797S/DEL746-750/T790M); assay: Inhibition of EGFR[T790M/C797S/d746-750] biochemical enzymatic activity (HTRF)
T2 construct: purchased Carna Bio
How it was run: as §1

[2] = tested on: Ba/F3 cells expressing EGFR mutations; assay: Cell proliferation assay, Ba/F3 cells expressing EGFR mutations (CellTiter-Glo, 72 hours); format: cell-based; details: Mus musculus, BaF3, 72 h
How it was run: (§2)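 Cells are exposed to graded compound concentrations after overnight plating, using 500 PC-9 or 5000 Ba/F3 per well. Baseline-subtracted viability is compared with vehicle to give percent proliferation, then GI50.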

EGFR L858R/T790M = target: T3, EGFR L858R/T790M (Homo sapiens, UniProt P00533, L858R/T790M); assay: Inhibition of EGFR L858R/T790M biochemical enzymatic activity (HTRF); details: 1 mM ATP
T3 construct: purchased Carna Bio
How it was run: as §1

PC-9 = assay: Cell proliferation assay, PC-9 cells (CellTiter-Glo, 72 hours); format: cell-based; details: Homo sapiens, PC-9, 72 h, PC9 cells
How it was run: as §2

EGFR wild type = target: T4, EGFR wild type (Homo sapiens, UniProt P00533); assay: Inhibition of EGFR wild type biochemical enzymatic activity (HTRF); details: 1 mM ATP
T4 construct: purchased Carna Bio
How it was run: as §1

EGFR Exon19Del = target: T5, EGFR Exon19Del (Homo sapiens, UniProt P00533, DEL746-750); assay: Inhibition of EGFR Exon19Del biochemical enzymatic activity (HTRF); details: read-out: IC50 @Del19
T5 construct: purchased Carna Bio
How it was run: as §1

EGFR L858R = target: T6, EGFR L858R (Homo sapiens, UniProt P00533, L858R); assay: Inhibition of EGFR L858R biochemical enzymatic activity (HTRF); details: 1 mM ATP
T6 construct: purchased Carna Bio
How it was run: as §1

EGFR[T790M/C797S/L858R] = target: T7, EGFR[T790M/C797S/L858R] (Homo sapiens, UniProt P00533, C797S/L858R/T790M); assay: Inhibition of EGFR[T790M/C797S/L858R] biochemical enzymatic activity (HTRF); details: 1 mM ATP
T7 construct: purchased Carna Bio
How it was run: as §1

EGFR (C797S L858R) = target: T8, EGFR (C797S L858R) (Homo sapiens, UniProt P00533, C797S/L858R); assay: Inhibition of EGFR (C797S L858R) biochemical enzymatic activity (HTRF); details: 1 mM ATP
T8 construct: purchased signalchem
How it was run: as §1

EGFR Exon19Del/T790M = target: T9, EGFR Exon19Del/T790M (Homo sapiens, UniProt P00533, DEL746-750/T790M); assay: Inhibition of EGFR Exon19Del/T790M biochemical enzymatic activity (HTRF); details: 1 mM ATP
T9 construct: purchased Carna Bio
How it was run: as §1

T3 sequence (P00533 25-1210 T790M/L858R): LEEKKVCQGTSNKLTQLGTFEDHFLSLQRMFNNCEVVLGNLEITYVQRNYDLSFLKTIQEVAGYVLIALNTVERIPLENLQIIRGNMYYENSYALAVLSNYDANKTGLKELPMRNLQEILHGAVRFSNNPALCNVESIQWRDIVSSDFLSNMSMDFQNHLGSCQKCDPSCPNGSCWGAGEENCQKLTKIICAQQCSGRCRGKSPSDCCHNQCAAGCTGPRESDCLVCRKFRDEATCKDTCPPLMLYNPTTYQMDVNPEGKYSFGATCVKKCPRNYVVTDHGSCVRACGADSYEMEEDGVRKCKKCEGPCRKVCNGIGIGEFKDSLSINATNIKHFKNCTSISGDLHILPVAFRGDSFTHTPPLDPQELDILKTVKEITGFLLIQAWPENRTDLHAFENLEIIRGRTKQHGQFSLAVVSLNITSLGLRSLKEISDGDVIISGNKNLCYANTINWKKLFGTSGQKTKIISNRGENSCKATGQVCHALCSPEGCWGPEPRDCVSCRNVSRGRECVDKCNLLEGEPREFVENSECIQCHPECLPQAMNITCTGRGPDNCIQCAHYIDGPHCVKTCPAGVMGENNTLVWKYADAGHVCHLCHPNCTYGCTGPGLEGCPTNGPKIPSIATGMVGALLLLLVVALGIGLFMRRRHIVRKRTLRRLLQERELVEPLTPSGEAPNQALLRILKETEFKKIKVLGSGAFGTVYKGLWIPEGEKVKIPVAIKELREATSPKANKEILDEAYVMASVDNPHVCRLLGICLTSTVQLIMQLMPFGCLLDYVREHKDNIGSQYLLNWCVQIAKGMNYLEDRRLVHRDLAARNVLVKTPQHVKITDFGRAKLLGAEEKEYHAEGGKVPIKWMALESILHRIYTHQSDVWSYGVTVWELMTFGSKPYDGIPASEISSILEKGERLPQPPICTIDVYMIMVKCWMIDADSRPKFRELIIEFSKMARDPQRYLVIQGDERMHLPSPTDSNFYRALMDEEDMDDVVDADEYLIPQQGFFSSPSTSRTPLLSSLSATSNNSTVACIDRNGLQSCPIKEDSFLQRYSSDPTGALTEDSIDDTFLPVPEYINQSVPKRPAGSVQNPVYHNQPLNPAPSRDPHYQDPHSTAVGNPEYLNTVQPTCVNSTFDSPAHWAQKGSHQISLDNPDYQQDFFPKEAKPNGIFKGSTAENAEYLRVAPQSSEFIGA
T6 sequence (P00533 25-1210 L858R): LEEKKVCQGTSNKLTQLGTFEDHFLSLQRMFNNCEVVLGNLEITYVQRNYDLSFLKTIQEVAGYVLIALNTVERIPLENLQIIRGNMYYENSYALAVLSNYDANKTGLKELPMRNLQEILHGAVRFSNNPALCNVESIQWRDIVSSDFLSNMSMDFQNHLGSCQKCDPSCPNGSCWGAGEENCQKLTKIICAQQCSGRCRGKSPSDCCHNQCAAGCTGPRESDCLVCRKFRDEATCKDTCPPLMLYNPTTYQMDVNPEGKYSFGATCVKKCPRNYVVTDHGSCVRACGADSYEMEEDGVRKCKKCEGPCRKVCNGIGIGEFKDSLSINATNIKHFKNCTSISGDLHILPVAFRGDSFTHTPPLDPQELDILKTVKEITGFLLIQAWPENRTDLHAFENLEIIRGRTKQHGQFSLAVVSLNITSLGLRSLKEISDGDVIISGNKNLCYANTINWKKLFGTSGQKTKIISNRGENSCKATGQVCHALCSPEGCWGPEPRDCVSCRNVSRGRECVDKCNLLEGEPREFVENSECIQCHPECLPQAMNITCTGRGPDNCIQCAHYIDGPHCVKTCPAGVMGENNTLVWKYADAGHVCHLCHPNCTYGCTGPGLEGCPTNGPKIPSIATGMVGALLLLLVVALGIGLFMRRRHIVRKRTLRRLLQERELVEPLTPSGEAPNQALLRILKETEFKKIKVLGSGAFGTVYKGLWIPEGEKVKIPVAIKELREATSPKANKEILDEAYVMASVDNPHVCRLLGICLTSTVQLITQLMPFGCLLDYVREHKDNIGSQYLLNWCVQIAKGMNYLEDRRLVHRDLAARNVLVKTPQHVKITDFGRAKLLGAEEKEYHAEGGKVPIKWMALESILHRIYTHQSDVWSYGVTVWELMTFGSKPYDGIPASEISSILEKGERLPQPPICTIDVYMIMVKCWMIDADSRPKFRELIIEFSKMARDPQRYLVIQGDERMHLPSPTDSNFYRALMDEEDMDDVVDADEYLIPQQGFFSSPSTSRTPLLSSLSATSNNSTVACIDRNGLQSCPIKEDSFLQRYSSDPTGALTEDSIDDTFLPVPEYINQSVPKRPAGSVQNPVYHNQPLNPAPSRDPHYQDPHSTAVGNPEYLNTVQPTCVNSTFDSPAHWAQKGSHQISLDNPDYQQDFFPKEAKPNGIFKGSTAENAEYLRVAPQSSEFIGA
T5 sequence (P00533 with tags, fused parts or gaps DEL746-750 limits assumed): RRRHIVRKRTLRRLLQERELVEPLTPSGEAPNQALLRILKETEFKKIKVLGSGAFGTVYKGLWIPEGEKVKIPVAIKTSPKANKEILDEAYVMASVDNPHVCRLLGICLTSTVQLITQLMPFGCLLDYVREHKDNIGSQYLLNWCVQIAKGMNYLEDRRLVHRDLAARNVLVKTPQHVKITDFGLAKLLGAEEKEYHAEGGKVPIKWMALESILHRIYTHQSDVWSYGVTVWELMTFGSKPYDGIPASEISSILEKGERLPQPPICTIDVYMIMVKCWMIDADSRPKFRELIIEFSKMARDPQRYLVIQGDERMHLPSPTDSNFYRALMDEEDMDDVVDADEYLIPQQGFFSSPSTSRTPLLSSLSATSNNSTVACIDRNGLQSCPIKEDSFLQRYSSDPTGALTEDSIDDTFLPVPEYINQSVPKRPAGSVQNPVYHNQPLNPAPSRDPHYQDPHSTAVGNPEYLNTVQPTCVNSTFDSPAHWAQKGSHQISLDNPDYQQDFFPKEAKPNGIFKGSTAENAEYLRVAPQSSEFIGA
T4 sequence (P00533 25-1210): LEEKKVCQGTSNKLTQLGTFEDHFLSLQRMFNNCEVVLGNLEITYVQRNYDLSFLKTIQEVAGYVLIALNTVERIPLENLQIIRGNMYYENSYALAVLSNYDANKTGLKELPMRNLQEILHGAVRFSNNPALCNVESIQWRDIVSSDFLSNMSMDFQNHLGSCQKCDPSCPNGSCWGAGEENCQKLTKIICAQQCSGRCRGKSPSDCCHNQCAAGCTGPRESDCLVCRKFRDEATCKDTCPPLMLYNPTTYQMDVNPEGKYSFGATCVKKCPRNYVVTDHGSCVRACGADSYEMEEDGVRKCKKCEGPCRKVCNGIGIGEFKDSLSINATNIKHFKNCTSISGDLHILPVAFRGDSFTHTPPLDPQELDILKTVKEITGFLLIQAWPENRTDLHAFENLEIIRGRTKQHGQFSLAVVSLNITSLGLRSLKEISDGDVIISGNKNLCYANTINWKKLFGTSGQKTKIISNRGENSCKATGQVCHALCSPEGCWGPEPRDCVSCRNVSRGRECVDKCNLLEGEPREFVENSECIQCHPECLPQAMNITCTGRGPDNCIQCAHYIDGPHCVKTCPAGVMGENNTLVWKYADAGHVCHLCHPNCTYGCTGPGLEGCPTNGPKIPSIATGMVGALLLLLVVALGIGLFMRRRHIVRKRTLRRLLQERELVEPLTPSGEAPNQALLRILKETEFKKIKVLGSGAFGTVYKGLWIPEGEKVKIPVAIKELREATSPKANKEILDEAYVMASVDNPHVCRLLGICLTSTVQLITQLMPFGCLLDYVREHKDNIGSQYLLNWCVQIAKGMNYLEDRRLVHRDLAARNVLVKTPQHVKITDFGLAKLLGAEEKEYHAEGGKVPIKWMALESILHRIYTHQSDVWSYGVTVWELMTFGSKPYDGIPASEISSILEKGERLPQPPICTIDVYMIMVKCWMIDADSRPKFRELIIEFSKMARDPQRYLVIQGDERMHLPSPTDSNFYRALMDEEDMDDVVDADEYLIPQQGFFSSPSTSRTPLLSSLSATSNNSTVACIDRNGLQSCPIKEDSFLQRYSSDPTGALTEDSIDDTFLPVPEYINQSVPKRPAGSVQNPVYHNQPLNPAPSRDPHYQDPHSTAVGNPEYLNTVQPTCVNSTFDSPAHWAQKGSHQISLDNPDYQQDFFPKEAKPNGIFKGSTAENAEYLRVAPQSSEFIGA
T9 sequence (P00533 with tags, fused parts or gaps DEL746-750/T790M limits assumed): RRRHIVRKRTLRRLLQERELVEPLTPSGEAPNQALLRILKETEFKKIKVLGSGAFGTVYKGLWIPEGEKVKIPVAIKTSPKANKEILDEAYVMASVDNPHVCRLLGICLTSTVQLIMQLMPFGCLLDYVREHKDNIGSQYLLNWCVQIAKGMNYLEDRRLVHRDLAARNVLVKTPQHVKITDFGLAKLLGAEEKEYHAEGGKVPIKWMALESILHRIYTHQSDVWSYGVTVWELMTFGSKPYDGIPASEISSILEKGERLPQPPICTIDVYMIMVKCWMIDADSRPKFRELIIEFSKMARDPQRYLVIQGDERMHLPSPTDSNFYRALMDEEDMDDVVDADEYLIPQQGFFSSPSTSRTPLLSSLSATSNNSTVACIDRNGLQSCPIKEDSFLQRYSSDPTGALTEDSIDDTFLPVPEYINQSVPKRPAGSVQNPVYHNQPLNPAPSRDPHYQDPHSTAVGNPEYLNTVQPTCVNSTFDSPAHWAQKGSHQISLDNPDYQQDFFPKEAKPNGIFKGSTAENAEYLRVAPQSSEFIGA

- IC50 (EGFR (d746-750 C797S); EGFR Del19-C797S, 1 h, room temperature, read-out: IC50 (nM) @Del19-C797S): 42 nM
- IC50 ([1]; EGFR T790M-C797S-Del19, 1 mM ATP, 1 h, room temperature, read-out: IC50 (nM) @T790M - C797S - Del19): 40 nM
- GI50 ([2]; BaF3 cells, EGFR DEL19-C797S, CellTiter-Glo, read-out: DEL19-C797S/BaF3 GI50): 17.1 nM
- GI50 ([2]; BaF3 cells, EGFR DEL19-T790-C797S, CellTiter-Glo, read-out: DEL19-T790-C797S/BaF3 GI50): 204 nM
- GI50 ([2]; BaF3 cells, EGFR L858R, CellTiter-Glo, read-out: L858R/BaF3 GI50): 89 nM
- GI50 ([2]; BaF3 cells, EGFR L858R-C797S, CellTiter-Glo, read-out: L858R-C797S/BaF3 GI50): 87 nM
- GI50 ([2]; BaF3 cells, EGFR L858R-T790-C797S, CellTiter-Glo, read-out: L858R-T790-C797S/BaF3 GI50): 51 nM
- GI50 ([2]; BaF3 cells, EGFR L858R-T790M, CellTiter-Glo, read-out: L858R-T790M/BaF3 GI50): 39 nM
- GI50 ([2]; EGFR DEL19-T790M, CellTiter-Glo, read-out: DEL19-T790M GI50): 226 nM
- IC50 (EGFR L858R/T790M; EGFR L858R-T790M, 1 h, room temperature, read-out: IC50 (nM) @L858R-T790M): 82 nM
- GI50 (PC-9; CellTiter-Glo, read-out: PC9 GI50): 145 nM
- IC50 (EGFR wild type; EGFR WT, 1 h, room temperature, read-out: IC50 (nM) @WT): > 5000 nM
- IC50 (EGFR Exon19Del; EGFR Del19, 1 mM ATP, 1 h, room temperature): 86 nM
- IC50 (EGFR L858R; 1 h, room temperature, read-out: IC50 (nM) @L858R): 301 nM
- IC50 (EGFR[T790M/C797S/L858R]; EGFR T790M-C797S-L858R, 1 h, room temperature, read-out: IC50 (nM) @T790M- C797S - L858R): 76 nM
- IC50 (EGFR (C797S L858R); EGFR L858-C797S, 1 h, room temperature, read-out: IC50 (nM) @L858-C797S): 132 nM
- IC50 (EGFR Exon19Del/T790M; EGFR Del19-T790M, 1 h, room temperature, read-out: IC50 (nM) @Del19-T790M): 41 nM
SMILES: C[C@@H]1CCCOc2c(cnn2CC(F)(F)F)-c2cc(cn(C)c2=O)C(=O)Nc2nc3ccc(N4CCN(C)CC4)cc3n2C1 [Example A20, (11R)-11,26-Dimethyl-16-(4-methylpiperazin-1-yl)-5-(2,2,2-trifluoroethyl)-7-oxa-4,5,13,20,22,26-hexaazapentacyclo[22.3.1.0^{2,6}.0^{13,21}.0^{14,19}]octacosa-1(28),2(6),3,14,16,18,20,24-octaene-23,27-dione]

- IC50 (EGFR (d746-750 C797S); EGFR (d746-750 C797S), 1 h at room temperature, read-out: IC50 @Del19-C797S): 454 nM
- IC50 ([1]; EGFR[T790M/C797S/d746-750], 1 mM ATP, 1 h at room temperature, read-out: IC50 @T790M - C797S - Del19): 245 nM
- GI50 ([2]; BaF3 cells, EGFR DEL19 - C797S, read-out: GI50 DEL19 - C797S/BaF3): 83 nM
- GI50 ([2]; BaF3 cells, EGFR DEL19 - T790-C797S, read-out: GI50 DEL19 - T790-C797S/BaF3): 107 nM
- GI50 ([2]; BaF3 cells, EGFR L858R - C797S, read-out: GI50 L858R - C797S/BaF3): 386 nM
- GI50 ([2]; BaF3 cells, EGFR L858R - T790-C797S, read-out: GI50 L858R - T790-C797S/BaF3): 46 nM
- GI50 ([2]; BaF3 cells, EGFR L858R - T790M, read-out: GI50 L858R - T790M/BaF3): 253 nM
- GI50 ([2]; BaF3 cells, EGFR L858R, read-out: GI50 L858R/BaF3): 471 nM
- GI50 ([2]; EGFR DEL19 - T790M, read-out: GI50 DEL19 - T790M): 135 nM
- IC50 (EGFR L858R/T790M; EGFR L858R/T790M, 1 h at room temperature, read-out: IC50 @L858R-T790M): > 5000 nM
- GI50 (PC-9; read-out: GI50 PC9): 438 nM
- IC50 (EGFR wild type; EGFR wild type, 1 h at room temperature, read-out: IC50 @WT): > 5000 nM
- IC50 (EGFR Exon19Del; EGFR Exon19Del, 1 mM ATP, 1 h at room temperature): 432 nM
- IC50 (EGFR L858R; 1 h at room temperature, read-out: IC50 @L858R): > 5000 nM
- IC50 (EGFR[T790M/C797S/L858R]; EGFR[T790M/C797S/L858R], 1 h at room temperature, read-out: IC50 @T790M- C797S - L858R): > 5000 nM
- IC50 (EGFR (C797S L858R); EGFR (C797S L858R), 1 h at room temperature, read-out: IC50 @L858-C797S): > 5000 nM
- IC50 (EGFR Exon19Del/T790M; EGFR Exon19Del/T790M, 1 h at room temperature, read-out: IC50 @Del19-T790M): 1070 nM
SMILES: Cc1cc2cc(n1)-c1cnn(C)c1OCCN1CC3CCC(C3)(C1)n1c(nc3ccc(N4CCN(C)CC4)cc31)NC2=O (single isomer, unassigned) [Example B9A, 15,21-Dimethyl-5-(4-methylpiperazin-1-yl)-23-oxa-2,9,11,16,20,21,26-heptaazaheptacyclo[24.4.1.1^{1,28}.1^{13,17}.0^{2,10}.0^{3,8}.0^{18,22}]tritriaconta-3,5,7,9,13,15,17(33),18(22),19-nonaen-12-one]

From patent US20260365670A1, “EGFR INHIBITORS AND USES THEREOF” (DIZAL (JIANGSU) PHARMACEUTICAL CO., LTD., priority 2022, published 2026)
